# Measured values as given in patent US20250388529A1, “N-Substituted Phenylalkylamines and Their Use as Therapeutic Agents” (priority 2023, published 2025).
# “And” between values parts separate entries of the source, which are not always exact repeats. Equal values may be shown once. “Also recorded” adds a separate entry of the source.
# How the values were obtained:
# HiBiT-5-HT2C = HiBiT-5-HT2C (Homo sapiens, UniProt P28335); experiment: cell-based
# [1] = Chance observation of local anesthetic effect upon contact with mucous membranes; format: in vivo
# HiBiT-5-HT1A = molecular target: T1, HiBiT-5-HT1A (Homo sapiens, UniProt P08908); experiment: cell-based; format: binding
# T1 construct: expressed in transfected cells; host or cells: HEK293 (transient)
# human Nav1.1 and Navβ1 [2] = molecular target: T2, human Nav1.1 and Navβ1 (Homo sapiens, UniProt P35498); experiment: Manual whole-cell patch clamp sodium current recording, HEK cells expressing hNav1.1 and Navβ1; format: cell-based; conditions: for reduction in Nav1.1 peak INa: after 3.9 minutes of perfusion
# Protocol: (§1) Cell lines: Human Embryonic Kidney (HEK) 293 cells stably expressing human VGSC a subunit Nav1.1 (GenBank accession number NP_008851.3) were a gift from Dr. Massimo Mantegazza. Human VGSC β1 subunit GenBank accession number NP_001028.1) cDNA was transfected into this line to generate a second, stable line. Cells were cultured in Dulbecco's Modified Eagle Medium containing (4.5 g/L D-glucose, L-glutamine, 110 mg/L sodium pyruvate, 200 μg/mL G418, 100 U/mL penicillin/streptomycin). All cells were maintained in an incubator at 37° C. with 5% CO2.
# Manual Sodium Current Recording: Sodium current (INa) was measured at room temperature using the manual whole-cell patch clamp technique with previously described electrophysiological methods (Chen et al., J Biol Chem., 2012; 287 (46): 39061-39069). Cells were plated on 12 mm diameter clear glass poly-D-lysine coated coverslips (Neuvitro) and used for electrophysiological recordings within 48 hours after plating. Cells were identified with an AIR upright confocal microscope (Nikon). Micropipettes were obtained from 1.5 mm outer diameter capillary glass tubing (Harvard Apparatus) using a P-97 horizontal puller (Sutter Instrument Co.). Micropipettes were then polished using a MF-830 micro forge (Narishige) to obtain a resistance between 2.0 to 5.0 M (2. The intracellular solution contained the following (in mM): 1 NaCl, 125 N-methyl-D-glucamine, 2 MgCl2, 10 EGTA, 40 HEPES, 5 phosphocreatine-tris, 2 Mg-ATP, 0.2 Na2-GTP, 0.1 leupeptin, 270-275 mOsm, pH 7.2 with H2SO4. Extracellular solution contained the following (in mM): 120 NaCl, 1 BaCl2, 2 MgCl2, 0.2 CdCl2, 1 CaCl2), 20 sucrose, 10 glucose, 10 HEPES, 10 tetraethylammonium chloride, 300-305 mOsm, pH 7.35 with NaOH. Signals were amplified using a Multiclamp 700B amplifier (Molecular Devices). Data were acquired with a Digidata 1440A interface (Molecular Devices) and analyzed using pClamp10 offline. Pipette and whole-cell capacitance were fully compensated, and series resistance was predicted and compensated at 50%. Signals were low pass-filtered at 10 kHz, and data were sampled at 20 kHz. Residual linear capacity and leak currents were eliminated using online P/4 subtraction. Gravity-powered perfusion of XOB was used in all manual patch clamp experiments with a flow rate of 2-3 mL/min. All manual whole-cell INa recorded under XOB conditions was conducted after 3.9 minutes of perfusion unless indicated otherwise.
# 5-HT2B = 5-HT2B (Homo sapiens, UniProt P41595); experiment: Gq-mediated calcium flux assay, Flp-In 293 T-Rex inducible cells (agonist and antagonist mode); format: cell-based; set-up: expressed in transfected cells
# human Nav1.1 = human Nav1.1 (Homo sapiens, UniProt P35498); experiment: Manual whole-cell patch clamp sodium current recording, HEK cells stably expressing human Nav1.1; format: cell-based; conditions: 10 μM
# Protocol: as §1
# Manual Sodium Current Recording: Sodium current (INa) was measured at room temperature using the manual whole-cell patch clamp technique with previously described electrophysiological methods (Chen et al., J Biol Chem., 2012; 287 (46): 39061-39069). Cells were plated on 12 mm diameter clear glass poly-D-lysine coated coverslips (Neuvitro) and used for electrophysiological recordings within 48 hours after plating. Cells were identified with an AIR upright confocal microscope (Nikon). […] Data were acquired with a Digidata 1440A interface (Molecular Devices) and analyzed using pClamp10 offline. […] All manual whole-cell INa recorded under XOB conditions was conducted after 3.9 minutes of perfusion unless indicated otherwise.
# 5-HT2A = 5-HT2A (Homo sapiens, UniProt P28223); experiment: Gq-mediated calcium flux assay, Flp-In 293 T-Rex inducible cells (agonist and antagonist mode); format: cell-based; set-up: expressed in transfected cells
# HiBiT-5-HT2A = molecular target: T3, HiBiT-5-HT2A (Homo sapiens, UniProt P28223); experiment: NanoBRET Target Engagement competitive displacement of […], HiBiT-5-HT2A transiently expressed in HEK293 cells; conditions: equilibrium competitive displacement, Cheng-Prusoff; read-out: KI (binding affinity) at 5-HT2A
# T3 construct: expressed in transfected cells; host or cells: HEK293 (transient)
# human Nav1.1 and Navβ1 [3] = molecular target: T2, human Nav1.1 and Navβ1; experiment: cell-based; conditions: for Peak INa Density @ −20 mV: I-V curve
# Chain of 5-HT2A (P28223 whole entry): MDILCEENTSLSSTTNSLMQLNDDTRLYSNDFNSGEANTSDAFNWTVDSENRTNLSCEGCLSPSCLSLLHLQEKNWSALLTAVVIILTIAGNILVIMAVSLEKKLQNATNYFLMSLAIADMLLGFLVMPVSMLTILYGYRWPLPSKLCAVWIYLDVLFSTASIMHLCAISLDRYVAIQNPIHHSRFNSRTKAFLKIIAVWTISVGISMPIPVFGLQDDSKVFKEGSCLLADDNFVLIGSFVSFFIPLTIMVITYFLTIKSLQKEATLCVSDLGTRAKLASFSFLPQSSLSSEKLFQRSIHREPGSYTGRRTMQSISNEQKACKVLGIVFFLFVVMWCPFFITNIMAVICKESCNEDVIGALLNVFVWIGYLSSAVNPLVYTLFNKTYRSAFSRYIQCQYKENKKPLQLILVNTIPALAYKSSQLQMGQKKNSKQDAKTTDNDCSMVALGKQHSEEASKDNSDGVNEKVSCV
# T1 sequence (P08908 whole entry): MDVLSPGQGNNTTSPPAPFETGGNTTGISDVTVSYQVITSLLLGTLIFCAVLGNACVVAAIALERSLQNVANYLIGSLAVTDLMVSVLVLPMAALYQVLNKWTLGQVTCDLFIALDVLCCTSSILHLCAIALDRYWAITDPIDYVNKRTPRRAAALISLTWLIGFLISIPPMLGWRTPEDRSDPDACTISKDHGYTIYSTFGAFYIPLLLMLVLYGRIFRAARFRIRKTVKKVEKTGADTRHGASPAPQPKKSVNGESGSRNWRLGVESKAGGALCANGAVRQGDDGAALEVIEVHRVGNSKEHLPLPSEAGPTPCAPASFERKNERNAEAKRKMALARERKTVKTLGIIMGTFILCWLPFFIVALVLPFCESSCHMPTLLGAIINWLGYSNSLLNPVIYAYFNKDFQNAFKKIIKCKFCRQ
# T3 sequence (P28223 whole entry): as the sequence (P28223 whole entry) above
# Chain of 5-HT2B (P41595 whole entry): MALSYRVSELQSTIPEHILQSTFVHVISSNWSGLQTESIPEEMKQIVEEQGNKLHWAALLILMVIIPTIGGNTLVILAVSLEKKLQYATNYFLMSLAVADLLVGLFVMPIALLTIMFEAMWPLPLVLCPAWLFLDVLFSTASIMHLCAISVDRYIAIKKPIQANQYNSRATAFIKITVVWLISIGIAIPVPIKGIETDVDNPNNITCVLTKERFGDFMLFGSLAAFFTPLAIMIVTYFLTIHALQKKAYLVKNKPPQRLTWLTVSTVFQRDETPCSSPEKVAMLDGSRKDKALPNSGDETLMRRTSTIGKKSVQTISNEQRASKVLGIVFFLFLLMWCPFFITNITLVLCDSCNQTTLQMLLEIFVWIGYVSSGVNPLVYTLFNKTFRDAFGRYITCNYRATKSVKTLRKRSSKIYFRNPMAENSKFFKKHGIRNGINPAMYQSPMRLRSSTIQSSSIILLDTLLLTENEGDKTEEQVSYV
# Chain of HiBiT-5-HT2C (P28335 33-458): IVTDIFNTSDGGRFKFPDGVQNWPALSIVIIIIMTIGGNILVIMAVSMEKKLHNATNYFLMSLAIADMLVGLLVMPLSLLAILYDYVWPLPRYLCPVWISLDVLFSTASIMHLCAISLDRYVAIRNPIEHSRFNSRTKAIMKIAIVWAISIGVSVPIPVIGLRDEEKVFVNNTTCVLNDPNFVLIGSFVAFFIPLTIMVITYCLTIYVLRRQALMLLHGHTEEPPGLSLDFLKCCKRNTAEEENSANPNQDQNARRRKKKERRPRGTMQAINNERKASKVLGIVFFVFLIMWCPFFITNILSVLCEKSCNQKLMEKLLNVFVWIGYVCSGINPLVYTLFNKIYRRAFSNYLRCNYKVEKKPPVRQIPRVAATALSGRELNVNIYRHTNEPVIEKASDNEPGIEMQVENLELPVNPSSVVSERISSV
compound,measurement,setting,value
"COc1cc(CCNCCCCCCOCCCCc2ccccc2)c(OC)cc1Br [XOB, N-(4-bromo-2,5-dimethoxyphenethyl)-6-(4-phenylbutoxy)hexan-1-amine]",Ki,HiBiT-5-HT2C,> 10 µM
same,local anesthetic effect,[1],profound and long-lasting local anesthetic effect
same,binding affinity at 5-HT1A (in words),HiBiT-5-HT1A,no measurable affinity; also recorded: negligible binding affinity
same,Ki,"HiBiT-5-HT1A; equilibrium competitive displacement, Cheng-Prusoff, read-out: KI (binding affinity) at 5-HT1A",> 10 µM
same,reduction in Nav1.1 peak INa,human Nav1.1 and Navβ1 [2]; 1 μM,35.3%
same,% Initial Peak INa,"human Nav1.1 and Navβ1 [2]; 1 μM, time 0 s, step −120 mV to 0 mV",100%
same,% Initial Peak INa,"human Nav1.1 and Navβ1 [2]; 1 μM, time 31.2 s",100.6%
same,% Initial Peak INa,"human Nav1.1 and Navβ1 [2]; 1 μM, time 62.4 s",93.0%
same,% Initial Peak INa,"human Nav1.1 and Navβ1 [2]; 1 μM, time 93.6 s",88.8%
same,% Initial Peak INa,"human Nav1.1 and Navβ1 [2]; 1 μM, time 124.8 s",87.0%
same,% Initial Peak INa,"human Nav1.1 and Navβ1 [2]; 1 μM, time 150.8 s",77.7%
same,% Initial Peak INa,"human Nav1.1 and Navβ1 [2]; 1 μM, time 182 s",75.1%
same,% Initial Peak INa,"human Nav1.1 and Navβ1 [2]; 1 μM, time 213.2 s",70.9%
same,% Initial Peak INa,"human Nav1.1 and Navβ1 [2]; 1 μM, time 234 s",64.7%
same,reduction in Nav1.1 peak INa,human Nav1.1 and Navβ1 [2]; 5 μM,95.7%
same,% Initial Peak INa,"human Nav1.1 and Navβ1 [2]; 5 μM, time 0 s, step −120 mV to 0 mV",100%
same,% Initial Peak INa,"human Nav1.1 and Navβ1 [2]; 5 μM, time 31.2 s",95.4%
same,% Initial Peak INa,"human Nav1.1 and Navβ1 [2]; 5 μM, time 62.4 s",40.0%
same,% Initial Peak INa,"human Nav1.1 and Navβ1 [2]; 5 μM, time 93.6 s",23.7%
same,% Initial Peak INa,"human Nav1.1 and Navβ1 [2]; 5 μM, time 124.8 s",11.2%
same,% Initial Peak INa,"human Nav1.1 and Navβ1 [2]; 5 μM, time 150.8 s",9.3%
same,% Initial Peak INa,"human Nav1.1 and Navβ1 [2]; 5 μM, time 182 s",5.4%
same,% Initial Peak INa,"human Nav1.1 and Navβ1 [2]; 5 μM, time 213.2 s",6.4%
same,% Initial Peak INa,"human Nav1.1 and Navβ1 [2]; 5 μM, time 234 s",4.3%
same,reduction in Nav1.1 peak INa,human Nav1.1 and Navβ1 [2]; 10 μM,98.6%
same,% Initial Peak INa,"human Nav1.1 and Navβ1 [2]; 10 μM, time 0 s, step −120 mV to 0 mV",100%
same,% Initial Peak INa,"human Nav1.1 and Navβ1 [2]; 10 μM, time 31.2 s",97.1%
same,% Initial Peak INa,"human Nav1.1 and Navβ1 [2]; 10 μM, time 62.4 s",94.8%
same,% Initial Peak INa,"human Nav1.1 and Navβ1 [2]; 10 μM, time 93.6 s",73.7%
same,% Initial Peak INa,"human Nav1.1 and Navβ1 [2]; 10 μM, time 124.8 s",28.5%
same,% Initial Peak INa,"human Nav1.1 and Navβ1 [2]; 10 μM, time 150.8 s",8.7%
same,% Initial Peak INa,"human Nav1.1 and Navβ1 [2]; 10 μM, time 182 s",2.9%
same,% Initial Peak INa,"human Nav1.1 and Navβ1 [2]; 10 μM, time 213.2 s",2.5%
same,% Initial Peak INa,"human Nav1.1 and Navβ1 [2]; 10 μM, time 234 s",1.4%
same,agonist activity at 5-HT2B,"5-HT2B; agonist mode, up to 10 μM",little to no measurable agonist activity
same,inhibition of 5-HT-mediated calcium flux at 5-HT2B,"5-HT2B; antagonist mode, concentrations up to 10 μM",< 50%
same,original baseline INa density at 0 mV recovered after washout,human Nav1.1; 10 minutes of washing out,17.5±3.64%
same,reduction of mean Nav1.1 peak INa density at 0 mV compared to baseline,"human Nav1.1; acute perfusion, three cells",94.1±1.31%
same,agonist activity at 5-HT2A,"5-HT2A; agonist mode, up to 10 μM",little to no measurable agonist activity
same,IC50,"5-HT2A; antagonist mode, 3.2 nM 5-HT, read-out: IC50, antagonism at 5-HT2A",1.3 µM
same,EC50,"5-HT2A; antagonist mode, read-out: EC50, antagonizes 5-HT2A",1.3 µM
same,Ki,HiBiT-5-HT2A,2.6 µM and 2 to 3 µM
same,Bottom of concentration response curve (normalized peak INa inhibition),human Nav1.1 and Navβ1 [3],0.02
same,Hill Slope of concentration response curve on peak INa,human Nav1.1 and Navβ1 [3],1.45
same,Top of concentration response curve (normalized peak INa inhibition),human Nav1.1 and Navβ1 [3],0.88
same,effect on voltage-dependence of sodium conductance,human Nav1.1 and Navβ1 [3],no effect was observed
same,Normalized Peak INa Inhibition,"human Nav1.1 and Navβ1 [3]; 0.1 nM, peak protocol",−0.077 ± 0.08
same,Peak INa Density,"human Nav1.1 and Navβ1 [3]; 0.1 nM, peak protocol",−429.6 ± 50.7 pA/pF
same,Peak INa Density @ −20 mV,human Nav1.1 and Navβ1 [3]; 1 nM,−395.9 ± 56.0 pA/pF
same,Normalized Peak INa Inhibition,"human Nav1.1 and Navβ1 [3]; 1 nM, peak protocol",0.015 ± 0.03
same,Peak INa Density,"human Nav1.1 and Navβ1 [3]; 1 nM, peak protocol",−386.1 ± 56.6 pA/pF
same,Peak INa Density @ −20 mV,human Nav1.1 and Navβ1 [3]; 10 nM,−319.1 ± 50.5 pA/pF
same,Normalized Peak INa Inhibition,"human Nav1.1 and Navβ1 [3]; 10 nM, peak protocol",−0.011 ± 0.03
same,Peak INa Density,"human Nav1.1 and Navβ1 [3]; 10 nM, peak protocol",−311.1 ± 41.7 pA/pF
same,Peak INa Density @ −20 mV,human Nav1.1 and Navβ1 [3]; 100 nM,−258.3 ± 34.1 pA/pF
same,Normalized Peak INa Inhibition,"human Nav1.1 and Navβ1 [3]; 100 nM, peak protocol",0.13 ± 0.02
same,Peak INa Density,"human Nav1.1 and Navβ1 [3]; 100 nM, peak protocol",−276.0 ± 31.0 pA/pF
same,Peak INa Density @ −20 mV,human Nav1.1 and Navβ1 [3]; 300 nM,−235.1 ± 37.9 pA/pF
same,Normalized Peak INa Inhibition,"human Nav1.1 and Navβ1 [3]; 300 nM, peak protocol",0.08 ± 0.06
same,Peak INa Density,"human Nav1.1 and Navβ1 [3]; 300 nM, peak protocol",−259.2 ± 38.0 pA/pF
same,Peak INa Density @ −20 mV,human Nav1.1 and Navβ1 [3]; 500 nM,−269.2 ± 38.8 pA/pF
same,Normalized Peak INa Inhibition,"human Nav1.1 and Navβ1 [3]; 500 nM, peak protocol",0.05 ± 0.07
same,Peak INa Density,"human Nav1.1 and Navβ1 [3]; 500 nM, peak protocol",−284.6 ± 35.2 pA/pF
same,Peak INa Density @ −20 mV,human Nav1.1 and Navβ1 [3]; 1 μM,−320.5 ± 40.0 pA/pF
same,Normalized Peak INa Inhibition,"human Nav1.1 and Navβ1 [3]; 1 μM, peak protocol",0.12 ± 0.03
same,Peak INa Density,"human Nav1.1 and Navβ1 [3]; 1 μM, peak protocol",−319.1 ± 34.5 pA/pF
same,Activation Slope Factor,human Nav1.1 and Navβ1 [3]; 3 μM,6.18 ± 1.1 mV^−1
same,Activation V1/2,human Nav1.1 and Navβ1 [3]; 3 μM,−34.32 ± 1.8 mV
same,Capacitance,human Nav1.1 and Navβ1 [3]; 3 μM,11.17 ± 1.0 pF
same,Inactivation Slope Factor,human Nav1.1 and Navβ1 [3]; 3 μM,−6.41 ± 0.7 mV^−1
same,Inactivation V1/2,human Nav1.1 and Navβ1 [3]; 3 μM,−60.46 ± 1.5 mV
same,Peak INa Density @ −20 mV,human Nav1.1 and Navβ1 [3]; 3 μM,−149.4 ± 22.4 pA/pF
same,Normalized Peak INa Inhibition,"human Nav1.1 and Navβ1 [3]; 3 μM, peak protocol",0.36 ± 0.05
same,Peak INa Density,"human Nav1.1 and Navβ1 [3]; 3 μM, peak protocol",−187.1 ± 23.3 pA/pF
same,Peak INa Density @ −20 mV,human Nav1.1 and Navβ1 [3]; 5 μM,−115.6 ± 20.4 pA/pF
same,Normalized Peak INa Inhibition,"human Nav1.1 and Navβ1 [3]; 5 μM, peak protocol",0.46 ± 0.06
same,Peak INa Density,"human Nav1.1 and Navβ1 [3]; 5 μM, peak protocol",−171.3 ± 22.2 pA/pF
same,reduction of baseline peak INa,human Nav1.1 and Navβ1 [3]; 10 μM,73±3%
same,Peak INa Density @ −20 mV,"human Nav1.1 and Navβ1 [3]; 10 μM, step −120 mV to −20 mV",−17.46±3.1 pA/pF
same,Peak INa Density,"human Nav1.1 and Navβ1 [3]; 10 μM, peak protocol",−85.4 ± 12.9 pA/pF
same,Normalized Peak INa Inhibition,"human Nav1.1 and Navβ1 [3]; 10 μM, peak protocol, 1−(IDrug÷IReference)",0.73 ± 0.03
same,IC50,"human Nav1.1 and Navβ1 [3]; concentration response curve, peak protocol, read-out: IC50, inhibition of peak INa (VGSC)",4.29 µM
